Among the data in PubChem BioAssay (NCI) are TGI and GI50 values, retold here.

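Growth conditions: 96-well plates. Treatment: test compound, 48 hours, 5 concentrations. Analysis: linear interpolation between bracketing concentrations; unreached endpoints set to highest concentration. GI50 marks 50% less growth. Definition used: TGI = concentration required for complete inhibition of growth.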

Test systems include COLO 205 colon; SF-295 CNS; U251 CNS; SF-268 CNS; SK-MEL-2 melanoma; MOLT-4 leukemia; IGROV1 ovarian; UACC-62 melanoma; SNB-19 CNS; A549 NSCLC.
Assay in all cases: NCI-60 cell line screen, 48 h

For `COC(=O)C1=Cc2cn(S(=O)(=O)c3ccc(C)cc3)c3cccc(c23)C(C=C(C)C)N1C(C)=O` (stereo not given), the TGI was 18.3 µM in the assay on COLO 205 colon; over 100 µM with SF-295 CNS; over 100 µM with U251 CNS; over 100 µM in the assay on SF-268 CNS; 29.5 µM with SK-MEL-2 melanoma; 44.9 µM in the assay with MOLT-4 leukemia. In addition, the TGI in the assay with IGROV1 ovarian, in the assay with UACC-62 melanoma, in the assay with SNB-19 CNS and in the assay on A549 NSCLC was over 100 µM throughout.
Regarding `CCCCCCn1c2c(c3c(O)cccc31)C(=O)c1ccccc1-2`, the GI50 in the assay on COLO 205 colon was 38.8 µM; with SF-295 CNS, 21 µM; with U251 CNS, 17.8 µM; with SF-268 CNS, 20.3 µM; in the assay with SK-MEL-2 melanoma, 18.9 µM; with MOLT-4 leukemia it was 28.7 µM. Moreover, the GI50 is 19.2 µM in the assay with IGROV1 ovarian, 17.5 µM in the assay with UACC-62 melanoma, 39.4 µM in the assay on SNB-19 CNS and 16.4 µM in the assay with A549 NSCLC. Further, the TGI in the assay on COLO 205 colon was over 100 µM; with SF-295 CNS it was 44.8 µM; in the assay with U251 CNS, 32.9 µM; in the assay on SF-268 CNS, 40.5 µM; in the assay on SK-MEL-2 melanoma, 37.9 µM; in the assay on MOLT-4 leukemia, over 100 µM. The TGI was 39.6 µM with IGROV1 ovarian, 31.7 µM in the assay with UACC-62 melanoma, over 100 µM in the assay with SNB-19 CNS and 34.5 µM in the assay on A549 NSCLC.
As for `COc1cccc(/C=C2\CCc3ccccc3C2=O)c1`, the GI50 was 19.9 µM in the assay with COLO 205 colon; 9.62 µM with SF-295 CNS; 5.3 µM in the assay on U251 CNS; 14.8 µM in the assay on SF-268 CNS; 12.9 µM in the assay with SK-MEL-2 melanoma; 3.38 µM in the assay with MOLT-4 leukemia. In addition, the GI50 is 12.5 µM in the assay with IGROV1 ovarian, 10.8 µM with UACC-62 melanoma, 12.4 µM in the assay on SNB-19 CNS and 20.1 µM with A549 NSCLC. The TGI with COLO 205 colon was found to be 34.1 µM; in the assay on SF-295 CNS, 27.3 µM; in the assay on U251 CNS, 20.2 µM; in the assay with SF-268 CNS it was 29.1 µM; in the assay with SK-MEL-2 melanoma, 28.2 µM; with MOLT-4 leukemia, 25.2 µM. Further, the TGI in the assay on IGROV1 ovarian stood at 35 µM; with UACC-62 melanoma, 25.7 µM; with SNB-19 CNS it was 26.7 µM; in the assay with A549 NSCLC, 60.1 µM.
`CN1c2ccccc2S(=O)(=O)n2c(COc3ccccc3)nnc21`: the TGI in the assay with COLO 205 colon, in the assay with SF-295 CNS, in the assay on U251 CNS, in the assay with SF-268 CNS, in the assay on SK-MEL-2 melanoma and with MOLT-4 leukemia was over 100 µM each time. In addition, the TGI in the assay on IGROV1 ovarian, in the assay with UACC-62 melanoma, in the assay with SNB-19 CNS and in the assay on A549 NSCLC was over 100 µM throughout.
On to `O=C(O)CCCc1cc2c(s1)-c1cccc3cccc-2c13`, for which the TGI in the assay on COLO 205 colon was 42.3 µM; in the assay on SF-295 CNS, over 100 µM; with U251 CNS, 53.8 µM; with SF-268 CNS it was over 100 µM; with SK-MEL-2 melanoma, 46.3 µM; in the assay with MOLT-4 leukemia it was 60.8 µM. The TGI with IGROV1 ovarian is over 100 µM; in the assay on UACC-62 melanoma, 47.2 µM; with SNB-19 CNS, over 100 µM; in the assay with A549 NSCLC, over 100 µM.
Regarding `NCCCCCCCCCn1c2c(c3ccccc3c1=O)C(=O)c1ccccc1-2`, the GI50 is 10 µM in the assay on COLO 205 colon; 9.67 µM with SF-295 CNS; 9.52 µM with U251 CNS; 11.8 µM in the assay with SF-268 CNS; 15.5 µM in the assay on SK-MEL-2 melanoma; 4.1 µM with MOLT-4 leukemia. Besides, the GI50 was 10.2 µM in the assay on IGROV1 ovarian, 9.35 µM in the assay on UACC-62 melanoma, 9.27 µM with SNB-19 CNS and 9.75 µM in the assay with A549 NSCLC. Besides, the TGI is 25 µM in the assay on COLO 205 colon; 20.8 µM with SF-295 CNS; 19.1 µM in the assay with U251 CNS; 31.5 µM in the assay on SF-268 CNS; over 50 µM with SK-MEL-2 melanoma; 40.4 µM with MOLT-4 leukemia. Also, the TGI in the assay on IGROV1 ovarian was over 50 µM; in the assay on UACC-62 melanoma, 18.1 µM; in the assay on SNB-19 CNS it was 22.6 µM; in the assay with A549 NSCLC, over 50 µM.
Take `COc1ccc2c(c1)CC1N(C)CCC13CCCCC23` (stereo not given): the TGI in the assay with COLO 205 colon, with SF-295 CNS, in the assay on U251 CNS, with SF-268 CNS, in the assay with SK-MEL-2 melanoma and in the assay on MOLT-4 leukemia was over 100 µM throughout. For the same compound, the TGI with IGROV1 ovarian, in the assay with UACC-62 melanoma, in the assay on SNB-19 CNS and in the assay with A549 NSCLC was over 100 µM in each case.
For the compound `CCN(CC)CC(O)c1cc(-c2ccc(Cl)cc2)nc2cc(Cl)ccc12` (stereo not given), the GI50 with COLO 205 colon is 1.65 µM; in the assay with SF-295 CNS, 1.81 µM; with U251 CNS, 1.75 µM; in the assay on SF-268 CNS it was 2.69 µM; with SK-MEL-2 melanoma, 1.92 µM; in the assay with MOLT-4 leukemia, 1.68 µM. Besides, the GI50 in the assay with IGROV1 ovarian was 0.518 µM; in the assay on UACC-62 melanoma it was 1.62 µM; in the assay on SNB-19 CNS, 4.34 µM; with A549 NSCLC it was 1.9 µM. Further, the TGI was 3.34 µM in the assay on COLO 205 colon; 3.37 µM with SF-295 CNS; 3.34 µM in the assay with U251 CNS; 8.06 µM in the assay on SF-268 CNS; 3.63 µM in the assay on SK-MEL-2 melanoma; 3.48 µM in the assay on MOLT-4 leukemia. For the same compound, the TGI was 2.47 µM with IGROV1 ovarian, 3.1 µM with UACC-62 melanoma, 16 µM in the assay on SNB-19 CNS and 3.63 µM with A549 NSCLC.
As for `COc1cc(/C=C2\CC3C4CCC5=CC(=O)CC[C@]5(C)C4CC[C@]3(C)C2=O)ccc1OCCN1CCCCC1` (stereo not given in full), the GI50 with COLO 205 colon was 5.34 µM; in the assay on SF-295 CNS, 2.02 µM; in the assay on U251 CNS, 3.2 µM; in the assay on SF-268 CNS, 4.72 µM; with SK-MEL-2 melanoma, 22 µM; in the assay on MOLT-4 leukemia it was 2.73 µM. In addition, the GI50 with IGROV1 ovarian is 11.2 µM; in the assay on UACC-62 melanoma, 2.39 µM; with SNB-19 CNS, 6.16 µM; in the assay with A549 NSCLC, 11 µM. In addition, the TGI in the assay with COLO 205 colon was 35.2 µM; with SF-295 CNS, 4.24 µM; with U251 CNS, 11.2 µM; with SF-268 CNS, 16.4 µM; in the assay with SK-MEL-2 melanoma, over 100 µM; in the assay with MOLT-4 leukemia, 75.2 µM. The TGI was over 100 µM in the assay with IGROV1 ovarian, 5.84 µM in the assay with UACC-62 melanoma, 31 µM in the assay on SNB-19 CNS and 41.1 µM in the assay with A549 NSCLC.
For `CC(C)OC(=O)c1cccnc1/C=N/O`, the TGI with COLO 205 colon, in the assay with SF-295 CNS, with U251 CNS, with SF-268 CNS, with SK-MEL-2 melanoma and with MOLT-4 leukemia was over 100 µM in each case. In addition, the TGI with IGROV1 ovarian, with UACC-62 melanoma, with SNB-19 CNS and with A549 NSCLC was over 100 µM in each case.
Turning to `Cc1nc2cc(Nc3nc(Nc4ccc(F)cc4)nc(N4CCCC4)n3)ccc2n1Cc1ccccc1`, the GI50 in the assay on COLO 205 colon was 1.79 µM; in the assay on SF-295 CNS, 2.15 µM; with U251 CNS, 1.66 µM; in the assay on SF-268 CNS, 1.94 µM; with SK-MEL-2 melanoma, 1.69 µM; with MOLT-4 leukemia it was 2.52 µM. Moreover, the GI50 was 1.9 µM in the assay with IGROV1 ovarian, 1.62 µM with UACC-62 melanoma, 3.4 µM in the assay with SNB-19 CNS and 2.05 µM in the assay with A549 NSCLC. The TGI in the assay with COLO 205 colon worked out at 3.48 µM; in the assay on SF-295 CNS, 4.78 µM; in the assay on U251 CNS it was 3.36 µM; in the assay with SF-268 CNS, 3.9 µM; in the assay with SK-MEL-2 melanoma, 3.33 µM; in the assay on MOLT-4 leukemia, 5.68 µM. Moreover, the TGI in the assay on IGROV1 ovarian is 3.48 µM; in the assay with UACC-62 melanoma it was 2.99 µM; with SNB-19 CNS it was 87.3 µM; with A549 NSCLC, 4.63 µM.
In the case of `COc1cc2oc(-c3ccc(O)cc3)cc(=O)c2c(OC)c1O`, the TGI in the assay on COLO 205 colon, in the assay on SF-295 CNS, in the assay with U251 CNS, in the assay with SF-268 CNS, in the assay on SK-MEL-2 melanoma and in the assay with MOLT-4 leukemia was over 100 µM in each case. Also, the TGI in the assay on IGROV1 ovarian, in the assay with UACC-62 melanoma, in the assay with SNB-19 CNS and with A549 NSCLC was over 100 µM throughout.
`C/C(CC(=O)Nc1cccc(C)c1C)=N\NC(N)=S`: the TGI in the assay with COLO 205 colon, with SF-295 CNS, in the assay on U251 CNS, with SF-268 CNS, in the assay with SK-MEL-2 melanoma and in the assay with MOLT-4 leukemia was over 100 µM in each case. The TGI with IGROV1 ovarian, with UACC-62 melanoma, in the assay on SNB-19 CNS and with A549 NSCLC was over 100 µM throughout.
On to `Cc1cc2c(C)nn(Cc3ccccc3Cl)c2c(C#N)c1C`, for which the TGI with COLO 205 colon, in the assay with SF-295 CNS, in the assay with U251 CNS, with SF-268 CNS, in the assay with SK-MEL-2 melanoma and with MOLT-4 leukemia was over 100 µM in each case. Besides, the TGI with IGROV1 ovarian, in the assay on UACC-62 melanoma, in the assay with SNB-19 CNS and with A549 NSCLC was over 100 µM in each case.
As to `COC(=O)[C@H](C)[C@@H]1CC[C@](C)(CCC2=C(C)CCCC2(C)C)OO1`, the TGI in the assay with COLO 205 colon, in the assay on SF-295 CNS, with U251 CNS, with SF-268 CNS, with SK-MEL-2 melanoma and in the assay on MOLT-4 leukemia was over 25 µM in each case. In addition, the TGI with IGROV1 ovarian, in the assay on UACC-62 melanoma, with SNB-19 CNS and in the assay with A549 NSCLC was over 25 µM throughout.
